Drawing on PubChem BioAssay AID328 (DTP/NCI, 2004), this text covers T/C for 14 compounds.

In this test the test system is BDF1 mice, P388 leukemia ip, median survival T/C. Put plainly: NCI In Vivo Anticancer Drug Screen. Data for tumor model P388 Leukemia (intraperitoneal) in B6D2F1 (BDF1) mice. Conditions: endpoint: median survival time, higher = longer survival. The method, boiled down: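 Reported as T/C, where T is the survival measurement in dosed animals and C the same measurement in vehicle controls.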

Setting [1] is: dose: 200.0 mg/kg/injection, schedule: Q01DX009 (ip), vehicle: Klucel (hydroxypropylcellulose) (HPC).
Where [2] appears, read: dose: 50.0 mg/kg/injection, schedule: Q01DX009 (ip), vehicle: saline with Tween-80.
Where [3] appears, read: dose: 50.0 mg/kg/injection, schedule: Q01DX009 (ip), vehicle: saline.
[4] abbreviates: dose: 100.0 mg/kg/injection, schedule: Q01DX009 (ip), vehicle: saline.
[5] abbreviates: dose: 100.0 mg/kg/injection, schedule: Q01DX009 (ip), vehicle: saline with Tween-80.
[6] abbreviates: dose: 200.0 mg/kg/injection, schedule: Q01DX009 (ip), vehicle: saline with Tween-80.
[7] abbreviates: dose: 50.0 mg/kg/injection, schedule: Q04DX003 (ip), vehicle: saline.
The mark [8] stands for this setting: dose: 100.0 mg/kg/injection, schedule: Q04DX003 (ip), vehicle: saline.
The mark [9] stands for this setting: dose: 200.0 mg/kg/injection, schedule: Q04DX003 (ip), vehicle: saline.

Inconclusive results and toxic doses are left out.

With `CC(=O)Nc1ccc(NC(=O)c2ccc([As](O)O)cc2)cc1`, the T/C was 109 % of control (dose: 29.0 mg/kg/injection, schedule: Q04DX003 (ip), vehicle: Klucel (hydroxypropylcellulose) (HPC)); 102 % of control (dose: 45.0 mg/kg/injection, schedule: Q01DX009 (ip), vehicle: saline); 113 % of control (dose: 45.0 mg/kg/injection, schedule: Q04DX003 (ip), vehicle: Klucel (hydroxypropylcellulose) (HPC)); 116 % of control (dose: 65.0 mg/kg/injection, schedule: Q01DX009 (ip), vehicle: saline); 170 % of control under setting [1]; 159 % of control (dose: 265.0 mg/kg/injection, schedule: Q01DX009 (ip), vehicle: Klucel (hydroxypropylcellulose) (HPC)).
For the compound `COc1ccc(SC2=C(N(C)C(C)=O)C(=O)c3ccccc3C2=O)cc1`, the T/C was 109 % of control (dose: 0.93 mg/kg/injection, schedule: Q01DX009 (ip), vehicle: Klucel (hydroxypropylcellulose) (HPC)); 113 % of control (dose: 1.87 mg/kg/injection, schedule: Q01DX009 (ip), vehicle: Klucel (hydroxypropylcellulose) (HPC)); 113 % of control (dose: 3.75 mg/kg/injection, schedule: Q01DX009 (ip), vehicle: Klucel (hydroxypropylcellulose) (HPC)); 108 % of control (dose: 7.5 mg/kg/injection, schedule: Q01DX009 (ip), vehicle: Klucel (hydroxypropylcellulose) (HPC)); 100 % of control (dose: 11.0 mg/kg/injection, schedule: Q04DX003 (ip), vehicle: Klucel (hydroxypropylcellulose) (HPC)); 100 % of control (dose: 17.0 mg/kg/injection, schedule: Q04DX003 (ip), vehicle: Klucel (hydroxypropylcellulose) (HPC)).
Consider `CC(=O)O.[Pb]`, for which the T/C reads like this: (dose: 12.5 mg/kg/injection, schedule: Q01DX009 (ip), vehicle: Klucel (hydroxypropylcellulose) (HPC)) 109 % of control; (dose: 25.0 mg/kg/injection, schedule: Q01DX009 (ip), vehicle: Klucel (hydroxypropylcellulose) (HPC)) 109 % of control; (dose: 25.0 mg/kg/injection, schedule: Q01DX009 (ip), vehicle: saline with Tween-80) 90 % of control; under setting [2], 90 % of control.
Regarding `CCCCc1ccc(N2C(N)=NC(N)=NC2(C)C)cc1`, the T/C is, setting by setting: (dose: 6.25 mg/kg/injection, schedule: Q01DX005 (ip), vehicle: Klucel (hydroxypropylcellulose) (HPC)) 111 % of control; (dose: 12.5 mg/kg/injection, schedule: Q01DX005 (ip), vehicle: Klucel (hydroxypropylcellulose) (HPC)) 110 % of control.
On to `NS(=O)(=O)c1ccc(Cl)cc1`, for which the T/C runs as follows: (dose: 25.0 mg/kg/injection, schedule: Q01DX009 (ip), vehicle: saline) 113 % of control; under setting [3], 109 % of control; (dose: 75.0 mg/kg/injection, schedule: Q04DX003 (ip), vehicle: saline) 100 % of control; under setting [4], 86 % of control; (dose: 150.0 mg/kg/injection, schedule: Q04DX003 (ip), vehicle: saline) 109 % of control; (dose: 300.0 mg/kg/injection, schedule: Q04DX003 (ip), vehicle: saline) 109 % of control.
On to `COc1cc([N+](=O)[O-])ccc1NC(=O)NCc1ccccc1`, for which the T/C under setting [2] is 95 % of control; the T/C under setting [5] was 98 % of control; the T/C under setting [6] was 98 % of control; the T/C (dose: 400.0 mg/kg/injection, schedule: Q01DX009 (ip), vehicle: saline with Tween-80) was 104 % of control.
Regarding `O=C(Oc1ccccc1[N+](=O)[O-])c1ccccc1`, the T/C is, setting by setting: (dose: 25.0 mg/kg/injection, schedule: Q04DX003 (ip), vehicle: other) 100 % of control; (dose: 75.0 mg/kg/injection, schedule: Q04DX003 (ip), vehicle: other) 100 % of control; (dose: 150.0 mg/kg/injection, schedule: Q04DX003 (ip), vehicle: other) 95 % of control; (dose: 400.0 mg/kg/injection, schedule: Q04DX003 (ip), vehicle: other) 90 % of control.
Regarding `COc1ccc2nc(NCN3C(=O)c4ccccc4C3=O)sc2c1`, the T/C runs as follows: (dose: 100.0 mg/kg/injection, schedule: Q01DX001 (ip), vehicle: Klucel (hydroxypropylcellulose) (HPC)) 104 % of control; (dose: 100.0 mg/kg/injection, schedule: Q01DX009 (ip), vehicle: Klucel (hydroxypropylcellulose) (HPC)) 109 % of control; (dose: 100.0 mg/kg/injection, schedule: Q04DX003 (ip), vehicle: Klucel (hydroxypropylcellulose) (HPC)) 100 % of control; (dose: 200.0 mg/kg/injection, schedule: Q01DX001 (ip), vehicle: Klucel (hydroxypropylcellulose) (HPC)) 100 % of control; under setting [1], 104 % of control; (dose: 200.0 mg/kg/injection, schedule: Q04DX003 (ip), vehicle: Klucel (hydroxypropylcellulose) (HPC)) 100 % of control. Besides, the T/C reads like this: (dose: 400.0 mg/kg/injection, schedule: Q01DX001 (ip), vehicle: Klucel (hydroxypropylcellulose) (HPC)) 95 % of control; (dose: 400.0 mg/kg/injection, schedule: Q01DX009 (ip), vehicle: Klucel (hydroxypropylcellulose) (HPC)) 104 % of control; (dose: 400.0 mg/kg/injection, schedule: Q04DX003 (ip), vehicle: Klucel (hydroxypropylcellulose) (HPC)) 100 % of control.
For `O=C1c2c(O)ccc(O)c2C(=O)c2c(NCCNCCO)ccc(NCCNCCO)c21`, the T/C reads like this: (dose: 0.78 mg/kg/injection, schedule: Q01DX009 (ip), vehicle: water) 270 % of control; (dose: 1.56 mg/kg/injection, schedule: Q01DX009 (ip), vehicle: water) 181 % of control; (dose: 3.13 mg/kg/injection, schedule: Q01DX009 (ip), vehicle: water) 90 % of control.
Consider `CCCCCCC(C)NN` (stereo not drawn), for which the T/C (dose: 12.5 mg/kg/injection, schedule: Q04DX003 (ip), vehicle: saline) is 98 % of control; the T/C (dose: 25.0 mg/kg/injection, schedule: Q04DX003 (ip), vehicle: saline) was 105 % of control; the T/C under setting [7] is 107 % of control.
With `CC(=O)Nc1nc(C)c(CCC#N)c(=O)[nH]1`, the T/C by setting is: under setting [8], 86 % of control; under setting [9], 90 % of control; (dose: 400.0 mg/kg/injection, schedule: Q04DX003 (ip), vehicle: saline) 86 % of control.
As to `NC(CC[Se]CC(N)C(=O)O)C(=O)O` (stereo not drawn), the T/C by setting is: (dose: 0.5 mg/kg/injection, schedule: Q01DX010 (ip), vehicle: saline) 90 % of control; (dose: 1.0 mg/kg/injection, schedule: Q01DX010 (ip), vehicle: saline) 104 % of control; (dose: 2.0 mg/kg/injection, schedule: Q01DX010 (ip), vehicle: saline) 100 % of control; (dose: 4.0 mg/kg/injection, schedule: Q01DX010 (ip), vehicle: saline) 104 % of control.
Consider `O=CNNC(=O)c1ccccn1`, for which the T/C runs as follows: under setting [2], 96 % of control; under setting [3], 100 % of control; under setting [7], 100 % of control; under setting [5], 96 % of control; under setting [4], 104 % of control; (dose: 100.0 mg/kg/injection, schedule: Q04DX003 (ip), vehicle: saline with Tween-80) 113 % of control. In addition, the T/C was 100 % of control under setting [8]; 96 % of control under setting [6]; 109 % of control (dose: 200.0 mg/kg/injection, schedule: Q04DX003 (ip), vehicle: saline with Tween-80); 100 % of control under setting [9].
For the compound `CC[C@@H](O)C[C@H]1CCC[C@@]2(C[C@@H]3OC(=O)/C=C/[C@@](C)(O)[C@@H](O)[C@H](C)[C@@H](O)[C@H](OC4CCC(N(C)C)C(C)O4)[C@@H](O)[C@](C)(O)CCCCC/C=C/[C@@H]4CC(C)(C)O[C@@]4(O)C[C@H](O2)[C@H]3C)O1` (stereo partly drawn), the T/C (dose: 0.04 mg/kg/injection, schedule: Q04DX003 (ip), vehicle: saline) is 91 % of control; the T/C (dose: 0.06 mg/kg/injection, schedule: Q04DX003 (ip), vehicle: saline) was 95 % of control; the T/C (dose: 0.1 mg/kg/injection, schedule: Q04DX003 (ip), vehicle: saline) is 108 % of control; the T/C (dose: 7.5 micrograms/kg/injection, schedule: Q01DX009 (ip), vehicle: saline) is 100 % of control; the T/C (dose: 7.5 micrograms/kg/injection, schedule: Q04DX003 (ip), vehicle: saline) is 104 % of control; the T/C (dose: 15.0 micrograms/kg/injection, schedule: Q01DX009 (ip), vehicle: saline) is 109 % of control. In addition, the T/C runs as follows: (dose: 15.0 micrograms/kg/injection, schedule: Q04DX003 (ip), vehicle: saline) 104 % of control; (dose: 30.0 micrograms/kg/injection, schedule: Q01DX009 (ip), vehicle: saline) 104 % of control; (dose: 30.0 micrograms/kg/injection, schedule: Q04DX003 (ip), vehicle: saline) 113 % of control.
